Read-outs that look alike come from different tables or passages of the source.
Assays:
Test in all cases: Ambit kinase profiling, competition binding
TAOK1 = molecular target: T1, TAOK1 (Homo sapiens, UniProt Q7L7X3)
T1 construct: purchased Ambit Biosciences (KINOMEscan)
T1 sequence (Q7L7X3 1-1001): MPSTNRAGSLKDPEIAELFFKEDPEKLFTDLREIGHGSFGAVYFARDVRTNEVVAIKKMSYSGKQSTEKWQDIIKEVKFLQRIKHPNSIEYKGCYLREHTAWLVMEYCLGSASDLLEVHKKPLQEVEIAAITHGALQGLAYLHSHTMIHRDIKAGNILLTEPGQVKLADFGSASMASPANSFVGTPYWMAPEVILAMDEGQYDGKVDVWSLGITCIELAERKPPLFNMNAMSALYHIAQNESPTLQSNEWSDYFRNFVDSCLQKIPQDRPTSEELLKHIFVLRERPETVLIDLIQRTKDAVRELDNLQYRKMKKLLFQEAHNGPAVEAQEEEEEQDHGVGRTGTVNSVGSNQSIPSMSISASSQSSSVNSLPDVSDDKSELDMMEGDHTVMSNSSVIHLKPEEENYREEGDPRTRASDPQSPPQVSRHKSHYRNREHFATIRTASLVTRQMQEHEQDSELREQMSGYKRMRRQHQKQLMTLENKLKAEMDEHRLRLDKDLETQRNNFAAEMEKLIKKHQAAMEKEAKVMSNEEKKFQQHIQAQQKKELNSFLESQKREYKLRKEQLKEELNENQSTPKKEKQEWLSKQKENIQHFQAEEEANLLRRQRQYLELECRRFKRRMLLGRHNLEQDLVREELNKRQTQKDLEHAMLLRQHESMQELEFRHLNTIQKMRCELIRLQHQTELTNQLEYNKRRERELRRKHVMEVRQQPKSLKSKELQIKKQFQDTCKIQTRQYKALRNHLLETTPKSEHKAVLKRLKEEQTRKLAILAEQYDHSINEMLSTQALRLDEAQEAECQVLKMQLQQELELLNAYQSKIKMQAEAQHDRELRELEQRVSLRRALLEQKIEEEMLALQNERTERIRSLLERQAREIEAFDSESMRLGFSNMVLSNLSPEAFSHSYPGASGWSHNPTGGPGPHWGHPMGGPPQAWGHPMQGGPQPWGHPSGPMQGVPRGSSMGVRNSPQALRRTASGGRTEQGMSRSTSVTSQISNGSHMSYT
Description: (§1) Also included in the kinase profile are four isoforms of PKC (δ, ε, η, θ) and eight isoforms of CAMKs (CAMKIα, δ, γ; CAMKIIα, β, δ, γ; CAMK4).
(§2) The global kinase profiling experiment was performed by Ambit Biosciences.

ERBB4 = molecular target: T2, ERBB4 (Homo sapiens, UniProt Q15303)
T2 construct: purchased Ambit Biosciences (KINOMEscan)
Description: as §1, §2

p38-delta = molecular target: T3, p38-delta (Homo sapiens, UniProt O15264)
T3 construct: purchased Ambit Biosciences (KINOMEscan)
T3 sequence (O15264 1-365): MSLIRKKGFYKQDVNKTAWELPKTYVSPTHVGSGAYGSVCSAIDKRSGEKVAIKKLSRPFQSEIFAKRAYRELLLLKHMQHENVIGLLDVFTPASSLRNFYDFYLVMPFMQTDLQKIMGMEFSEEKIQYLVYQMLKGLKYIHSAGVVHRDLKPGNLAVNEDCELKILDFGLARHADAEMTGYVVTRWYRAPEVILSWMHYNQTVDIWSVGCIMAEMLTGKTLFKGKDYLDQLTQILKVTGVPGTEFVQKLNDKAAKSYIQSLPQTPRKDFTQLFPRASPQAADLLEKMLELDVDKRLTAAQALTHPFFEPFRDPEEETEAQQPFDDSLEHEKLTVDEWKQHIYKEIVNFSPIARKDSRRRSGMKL
Description: as §1, §2

T2 sequence (Q15303 26-1308): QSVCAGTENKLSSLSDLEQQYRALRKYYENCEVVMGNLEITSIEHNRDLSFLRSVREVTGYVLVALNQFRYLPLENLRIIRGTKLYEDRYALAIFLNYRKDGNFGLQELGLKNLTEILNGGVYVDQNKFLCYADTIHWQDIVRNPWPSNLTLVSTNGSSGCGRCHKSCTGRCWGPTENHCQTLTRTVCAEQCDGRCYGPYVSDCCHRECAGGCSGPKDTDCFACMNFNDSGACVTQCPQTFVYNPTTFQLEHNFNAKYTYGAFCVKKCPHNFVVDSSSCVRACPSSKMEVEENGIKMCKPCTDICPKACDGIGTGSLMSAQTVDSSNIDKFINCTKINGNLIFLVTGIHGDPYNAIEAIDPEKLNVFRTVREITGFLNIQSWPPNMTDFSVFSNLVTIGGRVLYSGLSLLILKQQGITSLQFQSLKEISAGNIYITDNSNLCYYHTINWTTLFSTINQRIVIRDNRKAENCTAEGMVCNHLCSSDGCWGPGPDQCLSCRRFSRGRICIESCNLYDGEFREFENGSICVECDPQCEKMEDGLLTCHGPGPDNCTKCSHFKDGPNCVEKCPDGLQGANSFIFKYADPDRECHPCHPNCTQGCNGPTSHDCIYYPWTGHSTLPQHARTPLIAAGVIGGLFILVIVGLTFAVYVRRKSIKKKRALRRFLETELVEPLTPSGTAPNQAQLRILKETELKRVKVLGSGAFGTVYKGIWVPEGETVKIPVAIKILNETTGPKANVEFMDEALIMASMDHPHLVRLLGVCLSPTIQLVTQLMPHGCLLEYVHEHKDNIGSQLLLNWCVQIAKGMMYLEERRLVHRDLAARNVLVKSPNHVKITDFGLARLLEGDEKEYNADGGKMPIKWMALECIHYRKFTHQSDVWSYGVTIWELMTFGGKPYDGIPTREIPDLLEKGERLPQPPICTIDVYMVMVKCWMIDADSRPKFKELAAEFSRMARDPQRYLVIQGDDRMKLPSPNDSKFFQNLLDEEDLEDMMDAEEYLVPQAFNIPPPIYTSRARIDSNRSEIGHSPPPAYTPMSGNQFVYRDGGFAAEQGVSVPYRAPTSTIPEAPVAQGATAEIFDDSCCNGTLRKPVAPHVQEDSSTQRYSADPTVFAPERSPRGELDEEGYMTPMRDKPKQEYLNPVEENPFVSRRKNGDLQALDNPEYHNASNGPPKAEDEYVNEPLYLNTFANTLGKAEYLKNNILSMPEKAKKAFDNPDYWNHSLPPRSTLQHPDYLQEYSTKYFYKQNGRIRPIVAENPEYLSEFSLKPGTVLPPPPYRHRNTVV

Fc1ccc(-c2c(-c3ccncc3)[nH]c3nccnc23)cc1 [Compound 122] showed an inhibition at 10 µM (TAOK1; TAOK1, 10 µM, read-out: % Competition) of 99%, an inhibition at 10 µM (ERBB4; ERBB4, 10 µM, read-out: % Competition) of 80% and an inhibition at 10 µM (p38-delta; 10 µM, read-out: % Competition) of 82%.

CC(O)CNc1cc(-c2[nH]c3cccnc3c2-c2ccc(F)cc2)ccn1 (stereo not drawn) [Compound 140] was tested, and the inhibition at 10 µM (TAOK1; read-out: % Competition) was 67%, the inhibition at 10 µM (ERBB4; read-out: % Competition) was under 50% and the “% Competition” value (p38-delta; 10 µM) was under 50%.

Work on Fc1ccc(-c2c(-c3ccncc3)[nH]c3nccnc23)cc1 [RO1155697-000-005] yielded an inhibition at 10 µM (TAOK1; TAOK1, compound concentration 10 uM, read-out: Percent Competition) of 99%, an inhibition at 10 µM (ERBB4; ERBB4, compound concentration 10 uM, read-out: Percent Competition) of 80% and an inhibition at 10 µM (p38-delta; compound concentration 10 uM, read-out: Percent Competition) of 82%.

From article PMC3445516 (PLoS ONE, 2012)
